Here are results for eleven compounds from ChEMBL document CHEMBL5096232, “Exploring the NCS-382 Scaffold for CaMKIIα Modulation: Synthesis, Biochemical Pharmacology, and Biophysical Characterization of Ph-HTBA as a Novel High-Affinity Brain-Penetrant Stabilizer of the CaMKIIα Hub Domain” (J Med Chem, 2022).

Each structure is given as a SMILES string. Active and inactive are the calls of the source.

As usually defined, the Ki is a dissociation constant, usually derived from enzyme kinetics or from competition with a known ligand. The term Kd denotes the constant that tells how readily two partners part at equilibrium. What is called ΔTm is the shift of the melting midpoint relative to a reference. The Papp A→B is how fast a substance crosses the layer from the apical side. In general, Papp B→A refers to the apparent permeability from the basolateral to the apical side of a cell layer. Usually half-life stands for the time needed for the level to fall by half in the phase considered. A low value points to rapid decline.

Data set [1] addresses T1, Calcium/calmodulin-dependent protein kinase type II subunit alpha (Rattus norvegicus, UniProt P11275). The experiment in a line: Displacement of [3H]NCS-382 from CaMK2alpha in rat brain cortical membrane homogenates measured after 1 hr by TopCount scintillation counting method. The class given is cell membranes, Cortex. In general terms: Loss of bound radioactivity is the signal in a displacement assay; it reports binding, not function.

The target in data set [2] is T1, Calcium/calmodulin-dependent protein kinase type II subunit alpha. Nature of the data set: Displacement of [3H]HOCPCA from native CaMK2alpha in rat brain cortical membrane homogenates measured after 1 hr by TopCount scintillation counting method. The class given is cell membranes, Cortex.
Data set [3] has as its target T2, Calcium/calmodulin-dependent protein kinase type II subunit alpha (Homo sapiens, UniProt Q9UQM7). The experiment in a line: Binding affinity to recombinant human CaMK2alpha 6x hub domain (345 to 475 residues) Trp403 residue assessed as quenching of intrinsic tryptophan fluorescence at 9.8 to 29 uM by Trp flip assay. Particulars: filed as modulator, dose 9.8-29 µM.

For data set [4], the target named is T1, Calcium/calmodulin-dependent protein kinase type II subunit alpha. Nature of the data set: Displacement of [3H]HOCPCA from recombinant rat CaMK2alpha expressed in HEK293T cells measured after 1 hr by liquid scintillation counting method. The class given is cell-based.
In data set [5] the target is T2, Calcium/calmodulin-dependent protein kinase type II subunit alpha. The experiment in a line: Binding affinity to recombinant human CaMK2alpha 6x hub domain (345 to 475 residues) expressed in Escherichia coli BL21 DE3 assessed as dissociation constant by surface plasmon resonance assay.
The target is the same in data set [6]. Nature of the data set: Binding affinity to recombinant human CaMK2alpha 6x hub domain (345 to 475 residues) expressed in Escherichia coli BL21 DE3 assessed as thermal stability by measuring change in melting temperature at 5 to 1280 uM by SYPRO orange dye based differential scanning fluorimetry. The note with it: dose 5-1280 µM. For orientation: Differential scanning fluorimetry follows unfolding on heating by fluorescence.

For data set [7] the target is unchanged. Particulars: filed as modulator.
Description: Binding affinity to recombinant human CaMK2alpha 6x hub domain (345 to 475 residues) expressed in Escherichia coli BL21 DE3 assessed as dissociation rate constant by surface plasmon resonance assay
Data set [8] in a line: Metabolic stability in human liver microsomes assessed as intrinsic clearance per mg of protein at 0.5 uM incubated in presence of NADPH regenerating system and measured for 45 mins by LC-MS/MS analysis. Particulars: read-out: CLH. The class given is ADME, Microsome. For orientation: Liver microsomes are a subcellular fraction often used to study metabolism.
The nature of data set [9]: Metabolic stability in mouse liver microsomes assessed as intrinsic clearance per mg of protein at 0.5 uM incubated in presence of NADPH regenerating system and measured for 45 mins by LC-MS/MS analysis. Format: ADME, Microsome. Particulars: read-out: CLH.
Data set [10] is described as follows: Metabolic stability in human hepatocytes assessed as intrinsic clearance per 10^6 cells at 0.5 uM incubated in presence of NADPH regenerating system and measured for 120 mins by LC-MS/MS analysis. Format: ADME, cell-based, Hepatocyte. Particulars: read-out: CLH.
Data set [11] can be described thus: Metabolic stability in mouse hepatocytes assessed as intrinsic clearance per 10^6 cells at 0.5 uM incubated in presence of NADPH regenerating system and measured for 120 mins by LC-MS/MS analysis. Format: ADME, cell-based, Hepatocyte. The note with it: read-out: CLH.
Data set [12] in a line: Drug concentration in C57BL/6J mouse brain at 10 mg/kg, po by HPLC-MS/MS analysis. The class given is ADME, organism-based. The note with it: in vivo.
Data set [13] in a line: Drug concentration in C57BL/6J mouse plasma at 10 mg/kg, po by HPLC-MS/MS analysis. The class given is ADME, organism-based. Particulars: in vivo.
A short description of data set [14]: Ratio of drug concentration in brain to plasma in C57BL/6J mouse at 10 mg/kg, po measured at 30 mins by HPLC-MS/MS analysis. The note with it: read-out: BPR. Format: ADME, organism-based.
Data set [15] can be described thus: Unbound brain-to-plasma partition coefficient in C57BL/6J mouse at 10 mg/kg, po measured at 30 mins by HPLC-MS/MS analysis. Format: ADME, organism-based. Particulars: read-out: K(p,uu,brain).
For data set [16], the system named is BCRP. Nature of the data set: Apparent permeability across apical to basolateral side in MDCK-II-BCRP cells at 3 uM measured after 60 to 90 mins by LC-MS/MS analysis. The class given is ADME, cell-based, Canis lupus familiaris. The note with it: dog, time 60-90 min.
Data set [17] has as its system BCRP. The experiment in a line: Apparent permeability across basolateral to apical side in MDCK-II-BCRP cells at 3 uM measured after 60 to 90 mins by LC-MS/MS analysis. Format: ADME, cell-based, Canis lupus familiaris. The note with it: dog, time 60-90 min.
Data set [18] has as its system MDR1 (P-gp). Nature of the data set: Apparent permeability across apical to basolateral side in MDCKII-MDR1 cells at 3 uM measured after 60 to 90 mins by LC-MS/MS analysis. Format: ADME, cell-based, Canis lupus familiaris. The note with it: dog, MDCK-MDR1, time 60-90 min.
Data set [19] has as its system MDR1 (P-gp). Nature of the data set: Apparent permeability across basolateral to apical side in MDCKII-MDR1 cells at 3 uM measured after 60 to 90 mins by LC-MS/MS analysis. Format: ADME, cell-based, Canis lupus familiaris. Particulars: dog, MDCK-MDR1, time 60-90 min.
In data set [20] the test system is BCRP. Nature of the data set: Apparent permeability across apical to basolateral side in MDCK-II-BCRP cells at 3 uM preincubated with BCRP inhibitor, Ko 143 for 15 to 30 mins followed by compound addition and measured after 60 to 90 mins by LC-MS/MS analysis. Particulars: dog, with Ko 143 (BCRP inhibitor; concentration not stated), time 60-90 min. The class given is ADME, cell-based, Canis lupus familiaris.

Data set [21] relates to BCRP. The experiment in a line: Apparent permeability across basolateral to apical side in MDCK-II-BCRP cells at 3 uM preincubated with BCRP inhibitor, Ko 143 for 15 to 30 mins followed by compound addition and measured after 60 to 90 mins by LC-MS/MS analysis. Format: ADME, cell-based, Canis lupus familiaris. The note with it: dog, with Ko 143 (BCRP inhibitor; concentration not stated), time 60-90 min.

Data set [22] relates to MDR1 (P-gp). Nature of the data set: Apparent permeability across apical to basolateral side in MDCKII-MDR1 cells at 3 uM preincubated with P-gp/BCRP transporter dual inhibitor, elacridar for 15 to 30 mins followed by compound addition and measured after 60 to 90 mins by LC-MS/MS analysis. Format: ADME, cell-based, Canis lupus familiaris, MDCK-MDR1. The note with it: dog, time 60-90 min.

In data set [23] the test system is MDR1 (P-gp). Nature of the data set: Apparent permeability across basolateral to apical side in MDCKII-MDR1 cells at 3 uM preincubated with P-gp/BCRP transporter dual inhibitor, elacridar for 15 to 30 mins followed by compound addition and measured after 60 to 90 mins by LC-MS/MS analysis. The note with it: dog, time 60-90 min. The class given is ADME, cell-based, Canis lupus familiaris, MDCK-MDR1.

Data set [24] in a line: Half life in ip dosed mouse. Format: ADME, organism-based. The note with it: in vivo.

T2 sequence (Q9UQM7 whole entry, the tested form may be a part): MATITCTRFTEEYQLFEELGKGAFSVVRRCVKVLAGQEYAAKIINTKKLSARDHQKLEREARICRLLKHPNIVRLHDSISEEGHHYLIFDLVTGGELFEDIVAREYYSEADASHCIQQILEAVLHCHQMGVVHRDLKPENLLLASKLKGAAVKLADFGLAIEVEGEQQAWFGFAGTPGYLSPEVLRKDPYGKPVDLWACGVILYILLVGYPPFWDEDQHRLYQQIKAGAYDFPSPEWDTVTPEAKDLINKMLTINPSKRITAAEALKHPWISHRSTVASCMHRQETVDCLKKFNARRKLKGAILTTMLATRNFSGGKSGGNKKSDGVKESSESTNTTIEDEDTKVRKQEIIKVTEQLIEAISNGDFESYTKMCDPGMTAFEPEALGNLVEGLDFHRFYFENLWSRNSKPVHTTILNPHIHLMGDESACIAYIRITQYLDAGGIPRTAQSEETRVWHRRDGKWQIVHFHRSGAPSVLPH
T1 sequence (P11275 whole entry): as the sequence (Q9UQM7 whole entry, the tested form may be a part) above, with S324N counted along it

For `O=C(O)/C=C1\CCCc2cc(/C=C/c3ccccc3)ccc2C1O` (stereo unspecified), the Ki in data set [1] was 40 nM.

Regarding `O=C(O)/C=C1\CCCc2c(/C=C/c3c(Cl)cccc3Cl)cccc2C1O` (stereo unspecified), the Ki in data set [1] worked out at 110 nM.

Regarding `Cc1ccc2c(c1)CCC/C(=C\C(=O)O)C2O` (stereo unspecified), the Ki in data set [1] was 320 nM.

As for `O=C(O)/C=C1\CCCc2c(/C=C/c3ccccc3)cccc2C1O` (stereo unspecified), the Ki in data set [1] came to 14000 nM; in data set [2], 81 nM. In addition, in [3], the outcome was Active.

As to `O=C(O)C1=CC(O)CC1` (stereo unspecified), the Ki in [1] worked out at 160 nM; in data set [2], 130 nM; in data set [4], 1800 nM.

For the compound `O=C(O)/C=C1\CCCc2ccccc2C1O` (stereo unspecified), the Ki stood at 340 nM in data set [1], 590 nM in data set [2] and 3900 nM in data set [4]. Moreover, the Kd in [5] amounted to 8900 nM. Moreover, in data set [6], the ΔTm was 16.7 °C. In addition, the Kdiss in [7] came to 0.75 s⁻¹.

`O=C([O-])/C=C1\CCCc2cc(-c3ccccc3)ccc2C1O.[Na+]` (stereo unspecified): the microsomal CLint at 0.5 µM in data set [8] and in data set [9] was above 9.9 µL/min/mg throughout. Further, the hepatocyte CLint at 0.5 µM in data set [10] came to 8.6 µL/min/1e6 cells; in [11], 65 µL/min/1e6 cells. In data set [12], this compound displayed a Ct of 99.1 ng/mL. Also, in [13], the Cp amounted to 1450 ng/mL. Also, the Kp at 0.5 h in [14] is 0.1. For the same compound, the Kp uu at 0.5 h in data set [15] stood at 0.85. Moreover, the Papp A→B at 3 µM with BCRP [16] came out at 15.8 ×10⁻⁶ cm/s; with MDR1 (P-gp) [18], 13 ×10⁻⁶ cm/s; in the data set with BCRP [20] it was 15.9 ×10⁻⁶ cm/s; in the data set on MDR1 (P-gp) [22], 12.9 ×10⁻⁶ cm/s. Further, the Papp B→A at 3 µM in the data set with BCRP [17] turned out to be 19.4 ×10⁻⁶ cm/s; in the data set on MDR1 (P-gp) [19] it was 16.3 ×10⁻⁶ cm/s; with BCRP [21], 16.5 ×10⁻⁶ cm/s; with MDR1 (P-gp) [23], 15 ×10⁻⁶ cm/s. The compound further had a half-life in data set [24] of 18 min.

Take `O=C(O)/C=C1\CCCc2c(Br)cccc2C1O` (stereo unspecified): the inhibitory constant (Ki) in [1] worked out at 230 nM.

Take `O=C(O)/C=C1\CCCc2c(CCc3ccccc3)cccc2C1O` (stereo unspecified): the Ki in data set [1] was found to be 56 nM.

`O=C(O)/C=C1\CCCc2cc(F)ccc2C1O` (stereo unspecified): the Ki in data set [1] was 110 nM.

With `O=C(O)/C=C1\CCCc2ccc(-c3ccccc3)cc2C1O` (stereo unspecified), the Ki in [1] was 14000 nM.
